Test results taken from the NIST ThermoML archive (doi:10.1016/j.fluid.2013.06.044).
± gives the expanded uncertainty stated by the source.

Tests used:
[1] = refractive index (Na D-line) (dimensionless); conditions: 298.15 K; 101.33 kPa; Liquid; Standard Abbe refractometry
[2] = Liquid, Closed cell (Static) method

| Compound | refractive index [1] | vapor or sublimation pressure ([2]; 336.67 K) [kPa] | vapor or sublimation pressure ([2]; 350.33 K) [kPa] | vapor or sublimation pressure ([2]; 350.35 K) [kPa] | vapor or sublimation pressure ([2]; 350.41 K) [kPa] | vapor or sublimation pressure ([2]; 350.4 K) [kPa] | vapor or sublimation pressure ([2]; 350.36 K) [kPa] |
| --- | --- | --- | --- | --- | --- | --- | --- |
| CSC [2-thiapropane] | 1.43127 ± 0.00031 | 232.9 ± 1 | 340.4 ± 1.4 | 340.3 ± 0.9 | 340.4 ± 0.9 | – | – |
| COC [dimethyl ether] | – | 1576.5 ± 6.2 | – | – | – | – | – |
| CCO [ethanol] | 1.35959 ± 0.00037 | – | – | – | – | 96.5 ± 0.9 | – |
| COC(C)=O [methyl ethanoate] | 1.3589 ± 0.00036 | – | – | – | – | – | 196 ± 1 |
